Where “and” joins values, the source holds several entries; their conditions need not be identical. Equal values may be shown once.
Columns and labels:
CYPIR = experiment: Postemergence foliar-applied weed control, direct seeded rice, greenhouse (Example I); assay type: in vivo, Cyperus iria L.
ECHCO = experiment: as above; assay type: in vivo, Echinochloa colona (L.) Link
IPOHE [1] = experiment: as above; assay type: in vivo, Ipomoea hederacea Jacq.; settings: g ae/ha Compound A Benzyl Ester+g ai/ha oxadiazon: r33 17.5+0, r34 0+250, r35 17.5+250
SCPMA = experiment: In-water applied weed control, transplanted paddy rice, greenhouse (Example II); assay type: in vivo
PAPRH = experiment: Postemergence foliar herbicidal activity of mixtures in cereal crops, greenhouse (Example III); assay type: in vivo, Papaver rhoeas L.; settings: foliar-applied
Procedure: Seeds of the desired test plant species were planted in Sun Gro MetroMix® 306 planting mixture, which typically has a pH of 6.0 to 6.8 and an organic matter content of about 30 percent, in plastic pots with a surface area of 103.2 square centimeters (cm^2). When required to ensure good germination and healthy plants, a fungicide treatment and/or other chemical or physical treatment was applied. The plants were grown for 7-36 days in a greenhouse with an approximate 14 hour photoperiod which was maintained at about 18° C. during the day and about 17° C. during the night. Nutrients and water were added on a regular basis and supplemental lighting was provided with overhead metal halide 1000-Watt lamps as necessary. The plants were employed for testing when they reached the second or third true leaf stage.
Treatments consisted of the benzyl ester of 4-amino-3-chloro-5-fluoro-6-(4-chloro-2-fluoro-3-methoxy-phenyl)pyridine-2-carboxylic acid (Compound A), formulated as an SC, a second cereal herbicide alone and then both in combination.
Other herbicidal components were applied on an active ingredient basis and included PSII-inhibiting herbicides.
Measured aliquots of benzyl ester of 4-amino-3-chloro-5-fluoro-6-(4-chloro-2-fluoro-3-methoxy-phenyl)pyridine-2-carboxylic acid (Compound A) were placed in 25 milliliter (mL) glass vials and diluted in a volume of 1.25% (v/v) Agri-Dex® crop oil concentrate to obtain stock solutions. Compound requirements are based upon a 12 mL application volume at a rate of 187 liters per hectare (L/ha). Spray solutions of the second cereal herbicide and experimental compound mixtures were prepared by adding the stock solutions to the appropriate amount of dilution solution to form 12 mL spray solution with active ingredients in two- and three-way combinations. Formulated compounds were applied to the plant material with an overhead Mandel track sprayer equipped with an 8002E nozzle calibrated to deliver 187 L/ha over an application area of 0.503 square meters (m^2) at a spray height of 18 inches (46 cm) above average plant canopy. Control plants were sprayed in the same manner with the solvent blank.
The treated plants and control plants were placed in a greenhouse as described above and watered by sub-irrigation to prevent wash-off of the test compounds. After 20-22 days, the condition of the test plants as compared with that of the control plants was determined visually and scored on a scale of 0 to 100 percent where 0 corresponds to no injury and 100 corresponds to complete kill.
(§1) Colby's equation was used to determine the herbicidal effects expected from the mixtures (Colby, S. R. 1967. Calculation of the synergistic and antagonistic response of herbicide combinations. Weeds 15:20-22.).
(§2) The following equation was used to calculate the expected activity of mixtures containing two active ingredients, A and B: Expected=A+B−(A×B/100)

IPOHE [2] = experiment: Pre-emergence soil-applied weed control, greenhouse (Example IV); assay type: in vivo, Ipomoea hederacea (L.) Jacq.
Description: (§3) Seeds or nutlets of the desired test plant species were planted in a soil matrix prepared by mixing a loam soil (32 percent silt, 23 percent clay, and 45 percent sand, with a pH of about 6.5 and an organic matter content of about 1.9 percent) and calcareous grit in an 80 to 20 ratio. The soil matrix was contained in plastic pots with a volume of 1 quart and a surface area of 83.6 square centimeters (cm^2).
(§4) Treatments consisted of the benzyl ester of 4-amino-3-chloro-5-fluoro-6-(4-chloro-2-fluoro-3-methoxy-phenyl)pyridine-2-carboxylic acid (compound A) formulated as an SC (suspension concentrate) and various herbicidal components alone and in combination. Forms of compound A were applied on an acid equivalent basis.
(§5) Other herbicidal components were applied on an acid equivalent or active ingredient basis and included the protoporphyrinogen oxidase (PPO)-inhibiting herbicides, flumioxazin formulated as Payload® and oxadiazon formulated as Ronstar® 50W.
(§6) Treatment requirements were calculated based upon the rates being tested, the concentration of active ingredient or acid equivalent in the formulation, and a 12 mL application volume at a rate of 187 L/ha.
(§7) For treatments comprised of formulated compounds, measured amounts of compounds were placed individually in 25 mL glass vials and diluted in a volume of 1.25% (v/v) Agri-Dex® crop oil concentrate (COC) to obtain 12× stock solutions. […] Application solutions were prepared by adding an appropriate amount of each stock solution (e.g., 1 mL) and diluted to the appropriate final concentrations with the addition of 10 mL of an aqueous mixture of 1.25% (v/v) COC so that the final spray solutions contained 1.25% (v/v) COC.
All stock solutions and applications solutions were visually inspected for compound compatibility prior to application. Spray solutions were applied to the soil with an overhead Mandel track sprayer equipped with a 8002E nozzles calibrated to deliver 187 L/ha over an application area of 0.503 m^2 at a spray height of 18 inches (46 cm) above average pot height. Control pots were sprayed in the same manner with the solvent blank.
The treated and control pots were placed in a greenhouse and top watered as needed. When required to ensure good germination and healthy plants, a fungicide treatment and/or other chemical or physical treatment was applied. The pots were maintained in a greenhouse with an approximate 14 hr photoperiod which was maintained at about 29° C. during the day and 26° C. during the night. Nutrients (Peters® Excel 15-5-15 5-Ca 2-Mg) were applied in the irrigation solution as needed and water was added on a regular basis. Supplemental lighting was provided with overhead metal halide 1000-Watt lamps as necessary. After approximately 4 weeks, the condition of the test plants as compared with that of the untreated plants was determined visually and scored on a scale of 0 to 100 percent where 0 corresponds to no injury or growth inhibition and 100 corresponds to complete kill.
as §1, §2

SETVI = experiment: as above; assay type: in vivo, Setaria viridis (L.) Beauv.
Description: as §3, §4, §5, §6
as §7, with “COC. […]” for “COC.”
The treated and control pots were placed in a greenhouse and top watered as needed. […] After approximately 4 weeks, the condition of the test plants as compared with that of the untreated plants was determined visually and scored on a scale of 0 to 100 percent where 0 corresponds to no injury or growth inhibition and 100 corresponds to complete kill. […]

## COc1c(Cl)ccc(-c2nc(C(=O)OCc3ccccc3)c(Cl)c(N)c2F)c1F [Compound A Benzyl Ester, benzyl ester of 4-amino-3-chloro-5-fluoro-6-(4-chloro-2-fluoro-3-methoxy-phenyl)pyridine-2-carboxylic acid]
CYPIR; g ae/ha Compound A Benzyl Ester+g ai/ha bifenox (Fox ®): r17 8+0, r18 0+180, r19 0+360, r20 0+720, r21 8+180, r22 8+360, r23 8+720
  Visual Weed Control (%) - 21 DAA CYPIR Obs: 30%
CYPIR; g ae/ha Compound A Benzyl Ester+g ai/ha carfentrazone-ethyl: r11 8.75+0, r12 0+3.5, r13 0+7, r14 0+14, r15 8.75+3.5, r16 8.75+7, r17 8.75+14
  Visual Weed Control (%) - 21 DAA CYPIR Obs: 85%
CYPIR; g ae/ha Compound A Benzyl Ester+g ai/ha oxyfluorfen (technical): r27 4.38+0, r28 0+90, r29 0+180, r30 0+360, r31 4.38+90, r32 4.38+180, r33 4.38+360
  Visual Weed Control (%) - 21 DAA CYPIR Obs: 30%
CYPIR; g ae/ha Compound A Benzyl Ester+g ai/ha pyraflufen-ethyl: r17 8+0, r18 0+2.65, r19 0+5.3, r20 0+10.6, r21 8+2.65, r22 8+5.3, r23 8+10.6
  Visual Weed Control (%) - 21 DAA CYPIR Obs: 35%
CYPIR; g ae/ha Compound A Benzyl Ester+g ai/ha saflufenacil: r38 4.38+0, r39 0+5, r40 0+10, r41 0+20, r42 4.38+5, r43 4.38+10, r44 4.38+20
  Visual Weed Control (%) - 20 DAA CYPIR Obs: 70%
ECHCO; g ae/ha Compound A Benzyl Ester+g ai/ha acifluorfen sodium: r11 8+0, r12 0+140, r13 0+280, r14 8+140, r15 8+280
  Visual Weed Control (%) - 21 DAA ECHCO Obs: 40%
ECHCO; g ae/ha Compound A Benzyl Ester+g ai/ha pyraclonil: r15 4.38+0, r16 0+33.75, r17 0+67.5, r18 0+135, r19 4.38+33.75, r20 4.38+67.5, r21 4.38+135
  Visual Weed Control (%) - 20 DAA ECHCO Obs: 40%
ECHCO; g ae/ha Compound A Benzyl Ester+g ai/ha saflufenacil: r14 4.38+0, r15 8.75+0, r16 0+10, r17 0+20, r18 4.38+10, r19 8.75+10, r20 4.38+20, r21 8.75+20
  Visual Weed Control (%) - 20 DAA ECHCO Obs: 60% and 80%
IPOHE [1]
  Visual Weed Control (%) - 21 DAA IPOHE Obs: 10%
SCPMA; 48 g ae/ha alone
  Visual Weed Control (%) - 21 DAA SCPMA Obs: 0%
SCPMA; 96 g ae/ha alone
  Visual Weed Control (%) - 21 DAA SCPMA Obs: 0%
PAPRH; 5 g ai/ha alone
  Visual Weed Control (%) - 21 DAA PAPRH Obs: 28%
PAPRH; 10 g ai/ha alone
  Visual Weed Control (%) - 21 DAA PAPRH Obs: 35%
IPOHE [2]; 8 g ae/ha alone
  Visual Weed Control (%) - 32 DAA IPOHE Obs: 65%
IPOHE [2]; 16 g ae/ha alone
  Visual Weed Control (%) - 28 DAA IPOHE Obs: 13%
  Visual Weed Control (%) - 32 DAA IPOHE Obs: 83%
IPOHE [2]; 32 g ae/ha alone
  Visual Weed Control (%) - 28 DAA IPOHE Obs: 23%
SETVI; 16 g ae/ha alone
  Visual Weed Control (%) - 28 DAA SETVI Obs: 10%
SETVI; 32 g ae/ha alone
  Visual Weed Control (%) - 28 DAA SETVI Obs: 10%
